Source: PubChem BioAssay AID493250 (Broad Institute, 2011)
Active and inactive are the calls of the source.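 How the source made its calls: active means signal decrease with fitted half-maximal dose at or below ten times the highest valid tested dose; inconclusive means poor fit, or flat fit at 30 to 70% inhibition; inactive means the rest.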

Target: Zinc finger protein mex-5 (Caenorhabditis elegans) (UniProt Q9XUB2)
Experiment: MEX-5 zinc finger-RNA interaction blockers – biochemical, fluorescence polarization, C. elegans, cherry-picked, round 3, dose response (AID 493250)
Conditions: purified MEX-5-MBP, FITC-TCR2 RNA fluorescence polarization

Chain of Zinc finger protein mex-5 (Caenorhabditis elegans) (Q9XUB2 whole entry, looked up): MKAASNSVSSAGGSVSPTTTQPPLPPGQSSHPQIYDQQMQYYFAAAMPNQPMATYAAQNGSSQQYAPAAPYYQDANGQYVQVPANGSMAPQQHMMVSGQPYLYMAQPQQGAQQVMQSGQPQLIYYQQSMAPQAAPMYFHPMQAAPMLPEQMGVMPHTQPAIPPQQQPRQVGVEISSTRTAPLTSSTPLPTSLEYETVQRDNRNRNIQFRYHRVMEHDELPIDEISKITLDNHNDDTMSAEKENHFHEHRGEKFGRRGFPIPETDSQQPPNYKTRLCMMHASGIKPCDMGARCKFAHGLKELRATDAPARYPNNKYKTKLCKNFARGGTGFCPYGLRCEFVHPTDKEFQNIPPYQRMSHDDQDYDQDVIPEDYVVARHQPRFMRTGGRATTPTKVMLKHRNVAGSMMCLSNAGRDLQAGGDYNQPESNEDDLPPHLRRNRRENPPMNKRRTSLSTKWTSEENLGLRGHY

AC50	SMILES
6.96 µM	CCN1C(=O)c2cccc3c(NC(=O)C4CCCCC4)ccc1c23
9.41 µM	COc1ccc(Cl)cc1CN1CCN(c2nc(C)cc(C)c2C#N)CC1
6.44 µM	COc1ccc(OC)c(NC(=O)c2sc3nc(Cc4ccccc4)cc(C(F)(F)F)c3c2N)c1
10.4 µM	CCS(=O)(=O)C1=NN2C(=N)/C(=C\c3ccc(SCc4ccco4)o3)C(=O)N=C2S1
4.99 µM	CCCC1C2CN(C(C)C)CC=C2C(C#N)=C(N)C1(C#N)C#N (configuration not stated)
3.25 µM	COc1ccc(/C(O)=C/c2nc3ccccc3n(-c3ccccc3)c2=O)cc1
4.69 µM	CN1CC=C2C(C#N)=C(N)C(C#N)(C#N)C(Cc3ccccc3)C2C1 (configuration not stated)
5.95 µM	COC(=O)c1ccc2c(c1)SC1=C(CCCC1=O)N2
2.28 µM	COc1ccccc1/C=C/C=C1\Oc2c(ccc(O)c2CN(C)C)C1=O
> 10 µM (inactive)	COc1cccc(C2C=C(c3cccs3)Nc3ncnn32)c1OC (configuration not stated)
10.3 µM	CCOCCCn1c(=N)c(S(=O)(=O)c2ccccc2)cc2c(=O)n3cc(C)ccc3nc21
6.52 µM	N=C1CCC(=N)c2c1c(O)c1ccccc1c2O

Same assay, conditions: purified MEX-5-MBP, FITC-TCR2 RNA fluorescence polarization; at 10 µM (top of the series)

activity change, negative = inhibition	SMILES
inactive	CCCc1nc2ccccc2c(=O)n1/N=C/c1ccc(O)c(O)c1
inactive	C[C@H](O)CC1=C[C@H](O)[C@@H](C)OC1=O
inactive	CCCCCOP(=O)(OCCCCC)C1(NS(=O)(=O)c2ccccc2)C=CC(=O)c2ccccc21 (configuration not stated)
inactive	COc1ccc(OC)c(/C=C/C(=O)Nc2ccc(OC)nc2)c1
inactive	CC(=O)Nc1ccc(/C=N/NC(=O)CNS(=O)(=O)c2ccccc2)cc1
inactive	O=C1N=c2ccccc2=C1c1sc(=S)n(NC(=O)c2cccc(O)c2)c1O
inactive	Cc1cccc(C(=O)NNC(=O)c2ccco2)c1O
inactive	Oc1cccc(NC(=S)N=Nc2c(O)[nH]c3ccc(Br)cc23)c1
inactive	NC1=NC(=O)/C(=C\c2ccc(O)c([N+](=O)[O-])c2)S1
inactive	COc1ccc(/C=N/NC(=S)Nc2cccc(C(=O)O)c2)cc1
inactive	O=C1N=c2ccccc2=C1c1sc(=S)n(NC(=O)c2ccccc2)c1O
inactive	CCCOc1ccc([C@@H]2C3CN(C(=O)OCC)CC=C3C(C#N)=C(N)C2(C#N)C#N)cc1OC (some centres not stated)
inactive	COC(=O)/C(C#N)=C/c1c(-c2ccccc2)nc2n1CCS2
inactive	CN1CCCc2cc(C=O)ccc21
inactive	N=C(N)N=Nc1c(O)[nH]c2ccc(Br)cc12
inactive	CCCCN(C(=O)c1ccc(C)o1)c1c(N)n(CCCC)c(=O)[nH]c1=O
inactive	COc1ccc(-n2c(C)nc3cc(C(=O)O)ccc32)cc1
inactive	CCN(CC)c1ccc(/C=N/N2CCN(c3ccccc3OC)CC2)cc1
inactive	COc1ccc(CCn2c(=N)c(C(=O)NCC3CCCO3)cc3c(=O)n4cccc(C)c4nc32)cc1 (configuration not stated)
inactive	Cc1ccc(Nc2nc(-c3ccc(O)cc3O)cs2)nc1
inactive	O=C(O)COc1ccc(Br)cc1C(c1c(C(=O)O)[nH]c2ccccc12)c1c(C(=O)O)[nH]c2ccccc12
inactive	COCCNC(=S)NNC(=O)c1cccs1
inactive	Cc1ccc(C(=O)/C=C/c2ccccc2[N+](=O)[O-])cc1
inactive	Cc1cc(=O)oc(C)c1C(=O)Nc1c(C)n(C)n(-c2ccccc2)c1=O
inactive	COC(=O)c1ccccc1-c1ccc(C(c2c(C)[nH][nH]c2=O)c2c(C)[nH][nH]c2=O)o1
inactive	COc1ccc(N(CCC#N)C(=O)/C(C#N)=C\c2cccs2)cc1
inactive	CS(=O)(=O)c1nsc2nc(=O)c(/C=C3\C=Nc4ccccc43)c(N)n12

activity change, negative = inhibition	SMILES
inactive	COc1ccc(NC(=O)/C=C/c2cccc(C(F)(F)F)c2)cn1
inactive	COCCNC(=S)N/N=C/c1c2ccccc2cc2ccccc12
inactive	COc1ccc(/C=C2\CCCc3c2nc2ccc(C)cc2c3C(=O)O)cc1O
inactive	COC(=O)c1cccc(-c2ccc(C(c3c(C)[nH][nH]c3=O)c3c(C)[nH][nH]c3=O)o2)c1
inactive	Cc1cccc(C(=O)NNC(=O)c2csc(N3CCOCC3)n2)c1C
inactive	O=C1N=C(N2C=CC(=C3C=CNC=C3)C=C2)/C(=C/N=NC(=O)c2ccccc2)S1
inactive	CN1CCc2c(sc(NC(=O)c3ccc(S(=O)(=O)N4CCCC4)cc3)c2C(N)=O)C1
inactive	Cc1ccc(C(=O)N/C(=C\c2ccc(-c3ccc(Cl)cc3)o2)C(=O)NCCCN(C)C)cc1
inactive	O=C(O)c1ccc(NCc2cccnc2)cc1
inactive	Oc1cccc(/C=N/NC(=S)Nc2cccnc2)c1O
inactive	CCN=c1scc(-c2ccco2)n1/N=C/c1ccc(O)cc1
inactive	CCc1ccc(/C=C2\Oc3cc(OS(C)(=O)=O)ccc3C2=O)cc1
inactive	COc1ccc(/C=N/NC(=O)c2ccc(=O)[nH]n2)cc1OC
inactive	Cc1c(N=Cc2cc3c(cc2[N+](=O)[O-])OCO3)cccc1[N+](=O)[O-]
inactive	COc1ccc2c(c1)-c1ccccc1S(=O)(=O)N2C(C)=O
inactive	COCc1cc(C)nc(N/N=C/c2ccc(-c3cc(C(=O)O)ccc3Cl)o2)c1C#N
inactive	CCC(=O)NCCc1nc2ccccc2n1Cc1ccccc1
inactive	CCCn1c(=N)c(C(=O)NC2CCCC2)cc2c(=O)n3cccc(C)c3nc21
inactive	COc1ccc(C(=O)NNC(=O)c2ccc3ccccc3c2O)cc1
inactive	CN1CCc2c(sc(NC(=O)C3CCCN3S(=O)(=O)c3ccc(Cl)s3)c2C(N)=O)C1 (configuration not stated)
inactive	COC1=C(Nc2ccc(O)cc2)C(=O)c2ccccc2C1=O
inactive	Nc1c(C(=O)Nc2cccc(Cl)c2Cl)sc2nc(-c3cccnc3)ccc12
inactive	COC(=O)c1ccccc1N=Nc1c(N)n[nH]c1N
inactive	Nc1ccc2oc(-c3ccccc3Cl)cc(=O)c2c1O
inactive	CCOC(=O)C1Cc2ccccc2C(=O)O1 (configuration not stated)
inactive	CN1CN(C)c2ccc([N+](=O)[O-])c3cccc1c23
inactive	Cc1ccc(-c2cc(C(=O)Nc3ccc(S(=O)(=O)Nc4ncccn4)cc3)[nH]n2)c(O)c1C

activity change, negative = inhibition	SMILES
inactive	Cc1c(Cl)cccc1NC(=O)C(=O)NNS(=O)(=O)c1ccc(F)cc1
inactive	CC(=O)Nc1ccc(/C=N\NC(=O)CNS(=O)(=O)c2ccc([N+](=O)[O-])cc2)cc1
inactive	CC(C)=CCc1c(O)cc(O)c2c(=O)c(O[C@@H]3O[C@@H](C)[C@H](O)[C@@H](O)[C@H]3O)c(-c3ccc(O)cc3)oc12
inactive	CC(=O)CCS(=O)(=O)c1ccc(Oc2ccc(S(=O)(=O)CCC(C)=O)cc2)cc1
inactive	CCOC(=O)c1cnc(SCC(=O)NNC(=O)c2ccco2)nc1N
inactive	CC(C)CNC(=O)c1ccccc1Oc1ccccc1
inactive	C/C=C(\C)CN1CCC(n2nccc2NC(=O)CCCc2ccccc2)CC1
inactive	CC1=Nc2ccccc2/C1=C\c1nc(-c2ccccc2)oc1O
inactive	C#CCOCCOCCOCCNc1nc(N2CCN(C(=O)[C@H]([C@@H](C)CC)n3cc([C@@H](N)CO)nn3)CC2)nc(N2CCN(C(=O)[C@H]([C@@H](C)CC)n3cc([C@@H](N)CO)nn3)CC2)n1
inactive	COc1ccccc1C(=O)NNC(=O)c1csc(N2CCOCC2)n1
inactive	O=C(N/N=C/c1ccncc1)c1cc([N+](=O)[O-])cc([N+](=O)[O-])c1O
inactive	COC(=O)CCC(=O)NC(=S)Nc1sc(C)c(C)c1C(N)=O
inactive	CCCCn1c(N)c(N(CCOC)C(=O)c2ccc(Br)o2)c(=O)[nH]c1=O
inactive	C=CCn1c(O)c(N=NC(=O)CNC(=O)/C=C/c2ccco2)c2ccccc21
inactive	CN(N)c1ccc2c(C(F)(F)F)cc(C(F)(F)F)nc2n1
inactive	CC1=CC2=NC(=O)/C(=C\c3ccc(-c4cccc(Cl)c4)o3)C(=N)N2O1
inactive	COc1ccc(CC(=O)NNc2ncnc3c2cnn3C)cc1
inactive	C=CCc1cccc2cc(C(=O)NNC(=O)CC#N)c(=O)oc12
inactive	Oc1c(Cl)cc(Cl)c2c1NCCC2
inactive	NC(=S)N=Nc1c(O)[nH]c2cc(F)c(F)cc12
inactive	Cc1ccc(NC(=O)CCC(=O)NNC(=S)Nc2ccc(F)cc2)c(C)c1
inactive	CCOc1ccccc1C1NC(=O)NC(C)=C1C(=O)OCc1ccccc1 (configuration not stated)
inactive	COc1ccc2nc3ccccc3nc2c1N
inactive	CCCCn1c(N)c(N(Cc2ccccc2OC)C(=O)C(C)C)c(=O)[nH]c1=O
inactive	CN1CN(C)c2cccc3cccc1c23
inactive	O=C1/C(=C\c2ccc(Br)o2)Cc2ccccc21
